Several values for one entry are separate records, joined by “and”; a condition that tells them apart may be missing. Equal entries are not always repeated.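 Briefly, cells in 96-well plates were exposed to five compound concentrations for 48 h, and endpoints were estimated by linear interpolation. At the GI50, growth is halved. Definition used: TGI = concentration required for complete inhibition of growth.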
Key:
Test in all cases: NCI tumour cell line growth inhibition, 48 h
SF-295 CNS = test system: SF-295 CNS
SK-OV-3 ovarian = test system: SK-OV-3 ovarian
HT29 colon = test system: HT29 colon
SN12C renal = test system: SN12C renal
UO-31 renal = test system: UO-31 renal
NCI-H226 lung = test system: NCI-H226 lung
SW-620 colon = test system: SW-620 colon
NCI-H23 lung = test system: NCI-H23 lung
TK-10 renal = test system: TK-10 renal
SK-MEL-28 melanoma = test system: SK-MEL-28 melanoma

Structure (SMILES)	TGI (SF-295 CNS)	TGI (SK-OV-3 ovarian)	TGI (HT29 colon)	TGI (SN12C renal)	TGI (UO-31 renal)	TGI (NCI-H226 lung)	TGI (SW-620 colon)	TGI (NCI-H23 lung)	GI50 (SF-295 CNS)	GI50 (TK-10 renal)	TGI (TK-10 renal)	GI50 (SK-OV-3 ovarian)	GI50 (HT29 colon)	GI50 (SN12C renal)	GI50 (UO-31 renal)	GI50 (NCI-H226 lung)	GI50 (SW-620 colon)	GI50 (SK-MEL-28 melanoma)	TGI (SK-MEL-28 melanoma)	GI50 (NCI-H23 lung)
C#CCC[C@@H]1O[C@@]1(C)CC/C=C(\C)CC/C=C/C=O	79.4 µM	> 100 µM	> 100 µM	> 100 µM	> 100 µM	> 100 µM	51.4 µM	> 100 µM												
COc1cccc(C2CC(c3cc(OC)c(OC)c(OC)c3)=NN2)c1 (stereo unspecified)	38.3 µM	72.2 µM	27.2 µM	> 100 µM	38.8 µM	> 100 µM	11.5 µM		9.61 µM	23.7 µM	85.2 µM	24.1 µM	3.2 µM	22.7 µM	14.4 µM	28.9 µM	3.05 µM	17.8 µM	> 100 µM	
O=C(O)CSCc1cccc2ccccc12	> 100 µM	> 100 µM	> 100 µM	> 100 µM	> 100 µM	> 100 µM	> 100 µM	> 100 µM			> 100 µM								> 100 µM	
Cc1ccc(C(=O)N(CCCN)[C@@H](c2nc3cc(Cl)ccc3c(=O)n2Cc2ccccc2)C(C)C)cc1		1.65 µM and 2.19 µM	1.03 µM and 1.49 µM	2.28 µM and 1.83 µM	2.58 µM and 2.27 µM	2.25 µM and 2.5 µM	1.28 µM and 1.61 µM	1.59 µM and 1.67 µM	< 0.01 µM		1.71 µM and 2.81 µM	< 0.01 µM	< 0.01 µM	< 0.01 µM	1.12 µM and 1.02 µM	0.325 µM	< 0.01 µM	1.11 µM and 1.15 µM	2.5 µM and 2.42 µM	< 0.01 µM
O=[As](O)(O)c1ccc(NCc2ccccc2)cc1	> 100 µM		> 100 µM	> 100 µM	> 100 µM	> 100 µM		> 100 µM			> 100 µM								> 100 µM	
O=C1c2ccccc2C2(O)Nc3cc(O)ccc3C12O (stereo unspecified)	> 100 µM	> 100 µM	> 100 µM	> 100 µM		> 100 µM	> 100 µM	> 100 µM			> 100 µM								> 100 µM	
CCCN(CCC)CCCNCc1cc(I)cc(C)c1O	27 µM	31 µM	20 µM	> 100 µM	53.1 µM	66.1 µM	27.4 µM	33.5 µM	13.7 µM	16.1 µM	30.6 µM	16.3 µM	7.21 µM	28.7 µM	17.2 µM	22.3 µM	14.3 µM	15.4 µM	28.9 µM	15.2 µM
O=C(NCCCCCCCCNC(=O)c1cnc2ccccc2n1)c1cnc2ccccc2n1	> 100 µM	> 100 µM	> 100 µM	> 100 µM	> 100 µM	> 100 µM	> 100 µM	> 100 µM			> 100 µM									
CC1=CC2CC(C)=C(CC[C@]3(C)CC[C@H]([C@@H](C)C(=O)O)OO3)C(C)(C)C2CC1 (stereo partly specified)	2.67 µM	3.68 µM	0.429 µM	1.9 µM	2.23 µM	3.45 µM	0.354 µM	2.35 µM			3.15 µM								3.1 µM	
CC(C)(C)OC(=O)NCCNC1=CC(=O)c2nc3ccccc3c3ccnc1c23	40 µM	> 100 µM	43.8 µM	55.6 µM	> 100 µM	52.8 µM	37.4 µM	46.8 µM	18.2 µM	32.4 µM	99.7 µM	43.3 µM	17.9 µM	17.7 µM	28.8 µM	21.1 µM	15.1 µM	13.3 µM	28.9 µM	17.1 µM
C=C(Cn1c(=O)c2ccccc2c2ccccc21)c1ccc(C(=O)Nc2ccccc2N)cc1	> 100 µM	> 100 µM	> 83.8 µM	> 100 µM	> 63.2 µM	> 100 µM	> 100 µM	> 100 µM	> 79.7 µM	33.8 µM	> 100 µM	24.3 µM	13.3 µM	11.3 µM	2.28 µM	16.7 µM	58.7 µM	> 37.8 µM	> 100 µM	30.3 µM
O=C(/C=C/c1ccc(B(O)O)cc1)/C=C/c1ccc(B(O)O)cc1	5.66 µM	14.5 µM	3.95 µM	13.9 µM	4.73 µM	16.1 µM	4.02 µM	8.69 µM	2.02 µM	5.12 µM	17.3 µM	3.65 µM	1.82 µM	3.22 µM	1.91 µM	3.23 µM	1.79 µM	2.26 µM	5.21 µM	2.85 µM
COc1cc(CCc2cccnc2)cc(OC)c1OC	> 100 µM		> 100 µM	> 100 µM	> 100 µM	> 100 µM	> 100 µM	> 100 µM			> 100 µM								> 100 µM	
N#Cc1cccc(N2C(=O)c3c(c(-c4ccccc4)c(-c4ccc(Sc5ccc(-c6c(-c7ccccc7)c7c(c(-c8ccccc8)c6-c6ccccc6)C(=O)N(c6cccc(C#N)c6)C7=O)cc5)cc4)c(-c4ccccc4)c3-c3ccccc3)C2=O)c1	> 100 µM		> 100 µM	> 100 µM	> 100 µM		> 100 µM	> 100 µM			> 100 µM								> 100 µM	
O=S(=O)(Nc1ncccn1)c1ccc(N=Nc2ccc(O)c3ncccc23)cc1	12 µM	> 100 µM	78 µM	53.4 µM	12.4 µM	30.5 µM	33.7 µM		2.89 µM			19.2 µM	22.6 µM	6.43 µM	1.94 µM	13.4 µM	5.67 µM	12.5 µM	46.3 µM	
COc1cc(/C(Cl)=C/C=C/C(=O)c2c(C)[n+]([O-])c3ccc(Cl)cc3[n+]2[O-])cc(OC)c1OC	20.5 µM	31.5 µM	9.1 µM	> 50 µM	18.7 µM	> 50 µM	9.78 µM	44.6 µM	2.77 µM			7.4 µM	2.07 µM	9.1 µM	2.63 µM	13.3 µM	2.24 µM	6.85 µM	49.4 µM	9.36 µM
